{
  "source": "paper PMC5013292",
  "about": "“A Putative Bacterial ABC Transporter Circumvents the Essentiality of Signal Peptidase” (mBio, 2016)",
  "key": {"[1]": {"system": "S. aureus USA300 SpsB-high", "assay": "MIC, USA300 SpsB-high", "format": "cell-based", "conditions": "result in words", "method": "(§1) MICs were determined according to the standard protocol from the Clinical and Laboratory Standards Institute ([23]). Briefly, S. aureus bacteria were harvested from regular MHA plates that had been cultured for ~20 h at 37°C. Serial dilutions of compound 103 were incubated with bacteria at approximately 10^6 CFU (CFU)/ml in MHB in round-bottom 96 well plates (Corning, Corning, NY) for 22 h at 37°C. MICs were determined by the lowest concentration of compound 103 showing absence of growth by visual inspection.\nA strain of USA300 Δmcr overexpressing SpsB (USA300 SpsB-high; GNE0028) was engineered by cloning SpsB under the constitutive sarA promoter into vector pMK4, resulting in SpsB expression that was ~20-fold higher than the wild-type level as determined by Western blotting. A USA300 Δmcr strain that underexpresses SpsB (USA300 SpsB-low; […]) was generated by genomic incorporation of spsB under the isopropyl-β-D-thiogalactopyranoside (IPTG)-sensitive promoter spac; without IPTG, this strain expresses SpsB at ~5% of the wild-type level as determined by Western blotting."}, "[2]": {"system": "cro/cI(M1V)(pcro/cI-cro/cI) (GNE0109)", "assay": "MIC fold increase, GNE0109", "format": "cell-based, S. aureus", "method": "as §1"}, "[3]": {"system": "cro/cI(−14G→T)(pMK4) (GNE0096)", "assay": "MIC fold increase, GNE0096", "format": "cell-based, S. aureus", "method": "as §1"}, "[4]": {"system": "cro/cI(−62G→A)(pMK4) (GNE0099)", "assay": "MIC fold increase, GNE0099", "format": "cell-based, S. aureus", "method": "as §1"}, "[5]": {"system": "cro/cI(−62G→A)(pcro/cI-cro/cI) (GNE0100)", "assay": "MIC fold increase, GNE0100", "format": "cell-based, S. aureus", "method": "as §1"}, "[6]": {"system": "Δmcr cro/cI(Q16stop) ΔSAUSA300_0351 (GNE0209)", "assay": "MIC fold increase, GNE0209", "format": "cell-based, S. aureus", "method": "as §1\n(§2) To generate mutations in SAUSA300_0351, _0352, and _0353 genes by homologous recombination, we transformed USA300 Δmcr using targeting constructs created in the vector pIMAY ([24]). To generate mutations in SAUSA300_0351, _0352, and _0353 genes in a cro/cI mutant background, we selected colonies from USA300 Δmcr cultured on plates containing fourfold the MIC of compound 103. Sequencing of PCR products of the cro/cI gene from resistant colonies yielded a clone with a Q16stop codon mutation in cro/cI (strain GNE0173). We further mutated SAUSA300_0351, _0352, and _0353 in this USA300 Δmcr cro/cI (Q16stop) clone to study the contributions of these three genes to cro/cI-mediated resistance."}, "[7]": {"system": "Δmcr cro/cI(Q16stop) ΔSAUSA300_0353 (GNE0210)", "assay": "MIC fold increase, GNE0210", "format": "cell-based, S. aureus", "method": "as §1, §2"}, "[8]": {"system": "SpsB Y30D mutant of USA300 Δmcr cro/cI(Q16stop) SAUSA300_0352(K44A)", "assay": "MIC fold increase, SpsB Y30D mutant", "format": "cell-based, S. aureus", "method": "as §1"}, "[9]": {"system": "SpsB V49L mutant of USA300 Δmcr cro/cI(Q16stop) SAUSA300_0352(K44A)", "assay": "MIC fold increase, SpsB V49L mutant", "format": "cell-based, S. aureus", "method": "as §1"}, "[10]": {"system": "SpsB H68Y mutant of USA300 Δmcr cro/cI(Q16stop) SAUSA300_0352(K44A)", "assay": "MIC fold increase, SpsB H68Y mutant", "format": "cell-based, S. aureus", "method": "as §1"}, "[11]": {"system": "SpsB H69L mutant of USA300 Δmcr cro/cI(Q16stop) SAUSA300_0352(K44A)", "assay": "MIC fold increase, SpsB H69L mutant", "format": "cell-based, S. aureus", "method": "as §1"}, "[12]": {"system": "SpsB V167D mutant of USA300 Δmcr cro/cI(Q16stop) SAUSA300_0352(K44A)", "assay": "MIC fold increase, SpsB V167D mutant", "format": "cell-based, S. aureus", "method": "as §1"}, "[13]": {"system": "SpsB V167F mutant of USA300 Δmcr cro/cI(Q16stop) SAUSA300_0352(K44A)", "assay": "MIC fold increase, SpsB V167F mutant", "format": "cell-based, S. aureus", "method": "as §1"}},
  "data": [
    {"smiles": "CCCCc1ccc(-c2ccc(C(=O)N[C@@H](CCCCN)C(=O)N(C)[C@@H]3C(=O)N[C@@H](C)C(=O)N[C@H](C(=O)NCC(C)C(=O)O)Cc4ccc(O)c(c4)-c4cc3ccc4O)cc2)cc1", "note": "(some centres unmarked) [Compound 103]", "values": [
      {"measurement": "MIC for an SpsB-overexpressing strain", "setting": "[1]", "result": "increased MIC"},
      {"measurement": "MIC of compound 103 (fold increase versus MIC for USA300 WT)", "setting": "[2]; GNE0109", "result": 1.7, "unit": "fold"},
      {"measurement": "resistance phenotype", "setting": "[2]; GNE0109, plasmid-encoded WT cro/cI, result in words", "result": "reversed the resistant phenotype"},
      {"measurement": "MIC of compound 103 (fold increase versus MIC for USA300 WT)", "setting": "[3]", "result": ">32", "unit": "fold"},
      {"measurement": "MIC of compound 103 (fold increase versus MIC for USA300 WT)", "setting": "[4]", "result": ">32", "unit": "fold"},
      {"measurement": "MIC of compound 103 (fold increase versus MIC for USA300 WT)", "setting": "[5]; GNE0100", "result": ">32", "unit": "fold"},
      {"measurement": "resistance phenotype", "setting": "[5]; GNE0100, plasmid-encoded WT cro/cI, result in words", "result": "could not complement the phenotype"},
      {"measurement": "MIC of compound 103 (fold increase versus MIC for USA300 WT)", "setting": "[6]; GNE0209", "result": ">32", "unit": "fold"},
      {"measurement": "resistance phenotype", "setting": "[6]; GNE0209, deletion of SAUSA300_0351, result in words", "result": "had no effect on the resistance phenotype"},
      {"measurement": "MIC of compound 103 (fold increase versus MIC for USA300 WT)", "setting": "[7]; GNE0210", "result": 1.0, "unit": "fold"},
      {"measurement": "resistance phenotype", "setting": "[7]; GNE0210, deletion of SAUSA300_0353, result in words", "result": "reversed the resistant phenotype"},
      {"measurement": "MIC of compound 103 (fold increase versus MIC for USA300 WT)", "setting": "[8]", "result": 8, "unit": "fold"},
      {"measurement": "MIC of compound 103 (fold increase versus MIC for USA300 WT)", "setting": "[9]", "result": 4, "unit": "fold"},
      {"measurement": "MIC of compound 103 (fold increase versus MIC for USA300 WT)", "setting": "[10]", "result": 8, "unit": "fold"},
      {"measurement": "MIC of compound 103 (fold increase versus MIC for USA300 WT)", "setting": "[11]", "result": 4, "unit": "fold"},
      {"measurement": "MIC of compound 103 (fold increase versus MIC for USA300 WT)", "setting": "[12]", "result": 8, "unit": "fold"},
      {"measurement": "MIC of compound 103 (fold increase versus MIC for USA300 WT)", "setting": "[13]", "result": 8, "unit": "fold"}
    ]}
  ]
}
